US9944602B2, “Piperidinone herbicides” (E. I. DU PONT DE NEMOURS AND COMPANY, priority 2014, dated 2018)

Legend:
Type in all cases: in vivo
[1] = system: barnyardgrass (Echinochloa crus-galli); experiment: Test B flooded paddy test barnyardgrass; settings: Table B, Flood, scale 0 to 100
Method: (§1) Plant species in the flooded paddy test selected from rice (Oryza sativa), sedge, umbrella (small-flower umbrella sedge, Cyperus difformis), ducksalad (Heteranthera limosa), and barnyardgrass (Echinochloa crus-galli) were grown to the 2-leaf stage for testing. At the time of treatment, test pots were flooded to 3 cm above the soil surface, treated by application of test compounds directly to the paddy water, and then maintained at that water depth for the duration of the test. Treated plants and controls were maintained in a greenhouse for 13 to 15 d, after which time all species were compared to controls and visually evaluated. […] A dash (-) response means no test result.

[2] = system: ragweed (common ragweed, Ambrosia elatior); experiment: Test A preemergence ragweed; settings: 0 to 100 scale, 0 no effect, 100 complete control
Text: (§2) Seeds of plant species selected from barnyardgrass (Echinochloa crus-galli), kochia (Kochia scoparia), ragweed (common ragweed, Ambrosia elatior), ryegrass, Italian (Italian ryegrass, Lolium multiflorum), crabgrass, large (large crabgrass, Digitaria sanguinalis), foxtail, giant (giant foxtail, Setaria faberii), morningglory (Ipomoea spp.), pigweed (Amaranthus retroflexus), velvetleaf (Abutilon theophrasti), wheat (Triticum aestivum), and corn (Zea mays) were planted into a blend of loam soil and sand and treated preemergence with a directed soil spray using test chemicals formulated in a non-phytotoxic solvent mixture which included a surfactant.
(§3) At the same time, plants selected from these crop and weed species and also blackgrass (Alopecurus myosuroides), and galium (catchweed bedstraw, Galium aparine) were planted in pots containing the same blend of loam soil and sand and treated with postemergence applications of test chemicals formulated in the same manner. Plants ranged in height from 2 to 10 cm and were in the one- to two-leaf stage for the postemergence treatment. Treated plants and untreated controls were maintained in a greenhouse for approximately 10 d, after which time all treated plants were compared to untreated controls and visually evaluated for injury. Plant response ratings, summarized in Table A, are based on a 0 to 100 scale where 0 is no effect and 100 is complete control. A dash (-) response means no test result.

[3] = system: pigweed (Amaranthus retroflexus); experiment: Test A preemergence pigweed; settings: 0 to 100 scale, 0 no effect, 100 complete control
Text: as §2, §3

[4] = system: ragweed (common ragweed, Ambrosia elatior); experiment: Test A postemergence ragweed; settings: 0 to 100 scale, 0 is no effect, 100 is complete control
Text: as §2, §3

[5] = system: wheat (Triticum aestivum); experiment: Test A postemergence wheat; settings: 0 to 100 scale, 0 is no effect, 100 is complete control
Text: as §2, §3

[6] = system: pigweed (Amaranthus retroflexus); experiment: Test A postemergence pigweed; settings: 0 to 100 scale, 0 is no effect, 100 is complete control
Text: as §2, §3

[7] = system: barnyardgrass (Echinochloa crus-galli); experiment: Test A postemergence barnyardgrass; settings: 0 to 100 scale, 0 is no effect, 100 is complete control
Text: as §2, §3

[8] = system: sedge, umbrella (small-flower umbrella sedge, Cyperus difformis); experiment: Test B flooded paddy test sedge, umbrella; settings: Table B, Flood, scale 0 to 100
Method: as §1

[9] = system: galium (catchweed bedstraw, Galium aparine); experiment: Test A postemergence galium; settings: 0 to 100 scale, 0 is no effect, 100 is complete control
Text: as §2, §3

[10] = system: blackgrass (Alopecurus myosuroides); experiment: Test A postemergence blackgrass; settings: 0 to 100 scale, 0 is no effect, 100 is complete control
Text: as §2, §3

kochia (Kochia scoparia) [11] = experiment: Test A postemergence kochia; settings: 0 to 100 scale, 0 is no effect, 100 is complete control
Text: as §2, §3

kochia (Kochia scoparia) [12] = experiment: Test A preemergence kochia; settings: 0 to 100 scale, 0 no effect, 100 complete control
Text: as §2, §3

[13] = system: barnyardgrass (Echinochloa crus-galli); experiment: Test A preemergence barnyardgrass; settings: 0 to 100 scale, 0 no effect, 100 complete control
Text: as §2, §3

rice (Oryza sativa) = experiment: Test B flooded paddy test rice; settings: Table B, Flood, scale 0 to 100
Method: as §1

[14] = system: ryegrass, Italian (Italian ryegrass, Lolium multiflorum); experiment: Test A postemergence ryegrass, Italian; settings: 0 to 100 scale, 0 is no effect, 100 is complete control
Text: as §2, §3

corn (Zea mays) = experiment: Test A postemergence corn; settings: 0 to 100 scale, 0 is no effect, 100 is complete control
Text: as §2, §3

[15] = system: ducksalad (Heteranthera limosa); experiment: Test B flooded paddy test ducksalad; settings: Table B, Flood, scale 0 to 100
Method: as §1

[16] = system: foxtail, giant (giant foxtail, Setaria faberii); experiment: Test A postemergence foxtail, giant; settings: 0 to 100 scale, 0 is no effect, 100 is complete control
Text: as §2, §3

[17] = system: ryegrass, Italian (Italian ryegrass, Lolium multiflorum); experiment: Test A preemergence ryegrass, Italian; settings: 0 to 100 scale, 0 no effect, 100 complete control
Text: as §2, §3

[18] = system: foxtail, giant (giant foxtail, Setaria faberii); experiment: Test A preemergence foxtail, giant; settings: 0 to 100 scale, 0 no effect, 100 complete control
Text: as §2, §3

Row | SMILES | Ragweed plant response rating ([2]; 125 g ai/ha) | Ragweed plant response rating ([2]; 500 g ai/ha) | Pigweed plant response rating ([3]; 125 g ai/ha) | Pigweed plant response rating ([3]; 500 g ai/ha) | Plant response rating, Ragweed ([4]; 125 g ai/ha) | Plant response rating, Ragweed ([4]; 500 g ai/ha) | Plant response rating, Wheat ([5]; 125 g ai/ha) | Plant response rating, Wheat ([5]; 500 g ai/ha) | Plant response rating, Pigweed ([6]; 125 g ai/ha) | Plant response rating, Pigweed ([6]; 500 g ai/ha) | Plant response rating, Barnyardgrass ([7]; 125 g ai/ha) | Plant response rating, Barnyardgrass ([7]; 500 g ai/ha) | Plant response rating, Galium ([9]; 125 g ai/ha) | Plant response rating, Galium ([9]; 500 g ai/ha) | Plant response rating, Blackgrass ([10]; 125 g ai/ha) | Plant response rating, Blackgrass ([10]; 500 g ai/ha) | Plant response rating, Kochia (kochia (Kochia scoparia) [11]; 125 g ai/ha) | Plant response rating, Kochia (kochia (Kochia scoparia) [11]; 500 g ai/ha) | Kochia plant response rating (kochia (Kochia scoparia) [12]; 125 g ai/ha) | Kochia plant response rating (kochia (Kochia scoparia) [12]; 500 g ai/ha) | other results
1 | Cc1c(F)cccc1NC(=O)C1C(=O)NCCC1c1cccc(C(F)(F)F)c1 (racemic) [Compound 26] | 0 | 0 | 0 | 0 | 0 | 0 | 0 | 20 | 0 | 0 | 30 | 80 | 0 | 0 | 0 | 40 | 0 | 0 | 0 | 0 | Plant response rating ([1]; 500 g ai/ha): 40; Plant response rating ([8]; 500 g ai/ha): 0; Barnyardgrass plant response rating ([13]; 125 g ai/ha): 30; Barnyardgrass plant response rating ([13]; 500 g ai/ha): 90; Plant response rating (rice (Oryza sativa); 500 g ai/ha): 0; Plant response rating, Ryegrass, Italian ([14]; 125 g ai/ha): 20; Plant response rating, Ryegrass, Italian ([14]; 500 g ai/ha): 20; Plant response rating, Corn (corn (Zea mays); 125 g ai/ha): 20; Plant response rating, Corn (corn (Zea mays); 500 g ai/ha): 40; Plant response rating ([15]; 500 g ai/ha): 50; Plant response rating, Foxtail, Giant ([16]; 125 g ai/ha): 30; Plant response rating, Foxtail, Giant ([16]; 500 g ai/ha): 90; Ryegrass, Italian plant response rating ([17]; 125 g ai/ha): 0; Ryegrass, Italian plant response rating ([17]; 500 g ai/ha): 50; Foxtail, Giant plant response rating ([18]; 125 g ai/ha): 60; Foxtail, Giant plant response rating ([18]; 500 g ai/ha): 90
2 | O=C1NCCC(c2cccc(Cl)c2)C1C(=O)Nc1ccccc1C(F)(F)F (racemic) [Compound 33] | 0 | 0 | 0 | 0 | 0 | 0 | 0 | 0 | 0 | 0 | 60 | 90 | 0 | 0 | 0 | 0 | 0 | 0 | 0 | 30 | Plant response rating ([1]; 500 g ai/ha): 20; Plant response rating ([8]; 500 g ai/ha): 0; Barnyardgrass plant response rating ([13]; 125 g ai/ha): 50; Barnyardgrass plant response rating ([13]; 500 g ai/ha): 90; Plant response rating (rice (Oryza sativa); 500 g ai/ha): 0; Plant response rating, Ryegrass, Italian ([14]; 125 g ai/ha): 0; Plant response rating, Ryegrass, Italian ([14]; 500 g ai/ha): 0; Plant response rating, Corn (corn (Zea mays); 125 g ai/ha): 0; Plant response rating, Corn (corn (Zea mays); 500 g ai/ha): 0; Plant response rating ([15]; 500 g ai/ha): 80; Plant response rating, Foxtail, Giant ([16]; 125 g ai/ha): 50; Plant response rating, Foxtail, Giant ([16]; 500 g ai/ha): 90; Ryegrass, Italian plant response rating ([17]; 125 g ai/ha): 0; Ryegrass, Italian plant response rating ([17]; 500 g ai/ha): 0; Foxtail, Giant plant response rating ([18]; 125 g ai/ha): 70; Foxtail, Giant plant response rating ([18]; 500 g ai/ha): 90
3 | O=C1NCCC(c2cccc(OC(F)(F)F)c2)C1C(=O)Nc1ccccc1C(F)(F)F (racemic) [Compound 38] | 0 | 0 | 0 | 0 | 0 | 0 | 0 | 0 | 0 | 0 | 50 | 70 | 0 | 0 | 0 | 0 | 0 | 0 | 0 | 0 | Plant response rating ([1]; 250 g ai/ha): 35; Plant response rating ([8]; 250 g ai/ha): 0; Barnyardgrass plant response rating ([13]; 125 g ai/ha): 30; Barnyardgrass plant response rating ([13]; 500 g ai/ha): 80; Plant response rating (rice (Oryza sativa); 250 g ai/ha): 0; Plant response rating, Ryegrass, Italian ([14]; 125 g ai/ha): 0; Plant response rating, Ryegrass, Italian ([14]; 500 g ai/ha): 0; Plant response rating, Corn (corn (Zea mays); 125 g ai/ha): 0; Plant response rating, Corn (corn (Zea mays); 500 g ai/ha): 0; Plant response rating ([15]; 250 g ai/ha): 85; Plant response rating, Foxtail, Giant ([16]; 125 g ai/ha): 0; Plant response rating, Foxtail, Giant ([16]; 500 g ai/ha): 60; Ryegrass, Italian plant response rating ([17]; 125 g ai/ha): 0; Ryegrass, Italian plant response rating ([17]; 500 g ai/ha): 0; Foxtail, Giant plant response rating ([18]; 125 g ai/ha): 50; Foxtail, Giant plant response rating ([18]; 500 g ai/ha): 80
